Results published in article PMC5250654 (Clinical Drug Investigation, 2016).
Entries after “also recorded” stand apart in the source; their conditions may differ. Read-outs that look alike come from different tables or passages of the source.

Experiments:
[1] = molecular target: uridine 5′-diphospho-glucuronosyltransferase (UGT) 1A1; conditions: read-out: UGT1A1 inhibition IC50; in vitro; cited from earlier work
clinical [2] = conditions: human, in vivo, po
[3] = Safety and tolerability, fed studies; format: in vivo, human; conditions: n = 40
[4] = Safety and tolerability, FIH study; format: in vivo, human
[5] = system: anti-immunoglobulin E-stimulated CD63 expression on basophils; test: CD63 assay: ex vivo anti-IgE-stimulated CD63 expression on whole-blood basophils; format: cell-based, human
clinical [6] = conditions: human, in vivo; for Tmax: t max; for Tmax / half-life: fasted; for half-life: t ½
[7] = system: relapsed or refractory CLL; conditions: 800 mg twice-daily oral, relapsed or refractory CLL (n = 41), cited from earlier work
[8] = for C trough: Day 7 (steady state), mean (%CV)
[9] = Aqueous solubility of mono-mesylate salt; format: physicochemical
[10] = fed vs fasted, dose-dependent
B cell malignancies = conditions: 200 or 250 mg twice daily, cited from earlier work
[11] = FIH study (fasted), multiple dose, n = 56
[12] = FIH study (fasted), single dose, n = 40
[13] = po, 200 mg, Day 7 (steady state), 200 mg twice daily oral, median (interquartile range)
[14] = po, 600 mg, Day 7 (steady state), 600 mg twice daily oral, median (interquartile range)
[15] = po, 1200 mg, Day 7 (steady state), 1200 mg twice daily oral, median (interquartile range)

Structure (SMILES): c1cn2cc(-c3ccc4cn[nH]c4c3)nc(Nc3ccc(N4CCOCC4)cc3)c2n1 [entospletinib, Entospletinib]
- IC50 [1]: ~2500 nM
- half-life (clinical [2]): ~540 min
- AUC(0-inf) (clinical [2]; 25 mg): 231 ng·h/mL
- Cmax (clinical [2]; 25 mg): 42.3 ng/mL
- Tmax (clinical [2]; 25 mg): 2 h
- half-life (clinical [2]; 25 mg): 406 min
- AUC(0-inf) (clinical [2]; 75 mg): 413 ng·h/mL
- Cmax (clinical [2]; 75 mg): 67.8 ng/mL
- Tmax (clinical [2]; 75 mg): 2.75 h
- half-life (clinical [2]; 75 mg): 319 min
- AUC(0-inf) (clinical [2]; 200 mg): 4250 ng·h/mL
- Cmax (clinical [2]; 200 mg): 534 ng/mL
- Tmax (clinical [2]; 200 mg): 2 h
- half-life (clinical [2]; 200 mg): 571 min
- Cmax (clinical [2]; 600 mg): 779 ng/mL
- Tmax (clinical [2]; 600 mg): 2 h
- half-life (clinical [2]; 600 mg): 463 min
- AUC(0-inf) (clinical [2]; 1200 mg): 9740 ng·h/mL
- Cmax (clinical [2]; 1200 mg): 1060 ng/mL
- Tmax (clinical [2]; 1200 mg): 3.25 h
- half-life (clinical [2]; 1200 mg): 575 min
- Treatment-related AE: Headache [3]: 10 (25.0) n (%)
- Treatment-related AE: Oropharyngeal pain [3]: 5 (12.5) n (%)
- Treatment-related AE: Urinary tract infection [3]: 1 (2.5) n (%)
- severity of adverse events ([4]; FIH and fed studies): mild to moderate; also recorded: mild or moderate
- discontinuations due to treatment-related AEs ([4]; FIH study): no AE-driven study drug discontinuations
- Laboratory abnormality Grade ≥3: ALT [4, 11]: 1 (1.8) n (%)
- Laboratory abnormality Grade ≥3: AST [4, 11]: 1 (1.8) n (%)
- Laboratory abnormality Grade ≥3: Total bilirubin [4, 11]: 1 (1.8) n (%)
- Treatment-related AE: Headache [4, 11]: 18 (32.1) n (%)
- Treatment-related AE: Oropharyngeal pain [4, 11]: 6 (10.7) n (%)
- Treatment-related AE: Rhinorrhea [4, 11]: 7 (12.5) n (%)
- Laboratory abnormality Grade ≥3: Creatinine kinase [4, 12]: 1 (2.5) n (%)
- Treatment-related AE: Headache [4, 12]: 5 (12.5) n (%)
- Treatment-related AE: Nausea [4, 12]: 6 (10.7) n (%)
- tolerability ([4]; single or multiple oral doses, healthy adults): generally well-tolerated; also recorded: When administered in single or multiple oral doses in healthy adults, entospletinib monotherapy is generally well-tolerated
- inhibition of CD63 expression maintained at C trough ([5]; doses ≥600 mg twice daily, 12 h post-dose): ≥ 63%
- maximal mean inhibition of CD63 expression ([5]; doses ≥600 mg twice daily, peak at 2–4 h post-dose): ≥ 86%
- EC50 for inhibition of CD63 ([5]; plasma concentration–response, percentage of baseline): 429 ng/mL
- Tmax (clinical [6]; [13]): 2.27 h
- half-life (clinical [6]; [13]): 600 min
- Tmax (clinical [6]; [14]): 2.25 h
- half-life (clinical [6]; [14]): 924 min
- AUC(0-t) (clinical [6]; po, 900 mg): 5860 ng·h/mL
- Tmax (clinical [6]; [15]): 2.75 h
- half-life (clinical [6]; [15]): 834 min
- half-life (clinical [6]; doses ≤200 mg twice daily): ~540 min
- progression-free survival (PFS) rate ([7]; at 24 weeks): 70.1%
- median PFS [7]: 13.8 months
- increase in exposure (C max and AUC) on day 7 compared with day 1 ([8]; 7 days of twice-daily dosing, fasted): 2- to 4 fold
- C trough ([8]; 25 mg twice daily oral, fasted): 11.9 (64.5) ng/mL
- C trough ([8]; 75 mg twice daily oral, fasted): 79.2 (64.0) ng/mL
- C trough ([8]; 200 mg twice daily oral, fasted): 380 (63.3) ng/mL
- C trough ([8]; 600 mg twice daily oral, fasted): 1242 (65.6) ng/mL
- C trough ([8]; 900 mg twice daily oral, fasted): 1473 (67.2) ng/mL
- C trough ([8]; 1200 mg twice daily oral, fasted): 1471 (79.6) ng/mL
- steady-state C trough levels ([8]; doses of 600 mg twice daily or higher): > 1200 ng/mL
- terminal t ½ ([8]; single and multiple oral administration, fasted): 9 h
- solubility ([9]; aqueous buffer, pH 2): 3000 µg/mL
- solubility ([9]; aqueous medium): < 1 µg/mL
- reduction in AUC under fed conditions [10]: 20–80%
- reduction in C max under fed conditions [10]: 20–70%

Structure (SMILES): COc1cc(Nc2ncc(F)c(Nc3ccc4c(n3)N(COP(=O)(O)O)C(=O)C(C)(C)O4)n2)cc(OC)c1OC [fostamatinib]
- overall response rate (ORR) (B cell malignancies; CLL/small lymphocyte leukemia): 55%
- overall response rate (ORR) (B cell malignancies; DLBCL): 22%
- overall response rate (ORR) (B cell malignancies; FL): 10%
- overall response rate (ORR) (B cell malignancies; MCL): 11%
